The source of these data is patent US8106236B2, “Triaryl compounds and derivates thereof” (Ortho-McNeil Pharmaceutical, Inc., priority 2006, dated 2012).

Assay [1] deals with Aβ42. The assay is described as follows: In vivo Aβ42 lowering, mouse. As to conditions: oral dose 30 mpk at 4 hr time point, read-out: Mouse Efficacy % Lowering Aβ 42. An excerpt:
(§1) To determine whether acute administration of an Aβ42 lowering agent would reduce Aβ42 levels in vivo, non-transgenic rodents, e.g. mice or rats can be used. Alternatively, two to three month old Tg2576 mice expressing APP695 containing the “Swedish” variant can be used or a transgenic mouse model developed by Dr. Fred Van Leuven (K.U.Leuven, Belgium) and co-workers, with neuron-specific expression of a clinical mutant of the human amyloid precursor protein [V717I] (Moechars et al., 1999 J. Biol. Chem. 274, 6483). […] Animals of this age have high levels of Aβ in the brain but no detectable Aβ deposition. Mice treated with the Aβ42 lowering agent will be examined and compared to those untreated or treated with vehicle and brain levels of soluble Aβ42 and total Aβ would be quantitated by standard techniques, for example, using ELISA. Treatment periods may vary from hours to days and will be adjusted based on the results of the Aβ42 lowering once a time course of onset of effect can be established.
(§2) A typical protocol for measuring Aβ42 lowering in vivo is shown but it is only one of many variations that could be used to optimize the levels of detectable Aβ. For example, aliquots of compounds can be dissolved in DMSO (volume equal to 1/10th of the final formulation volume), vortexed and further diluted (1:10) with a 10% (w/v) hydroxypropyl β cyclodextrin (HBC, Aldrich, Ref N° 33,260-7) solution in PBS, where after they are sonicated for 20 seconds.
(§3) Aβ42 lowering agents may be administered as a single oral dose given three to four hours before sacrifice and analysis or alternatively could be given over a course of days and the animals sacrificed three to four hours after the final dose is given.
(§4) Blood is collected at sacrifice. The blood collection is performed via a heart puncture during anesthesia with a mixture of Ketalar (Ketamin), Rompun (Xylazin 2%) and Atropin (2:1:1) and collected in EDTA treated collection tubes. Blood is centrifuged at 4000 g for 5 minutes at 4° C. and the plasma recovered for analysis.
(§5) The mice are anaesthetized with a mixture of Ketalar (Ketamin), Rompun (Xylazin 2%) and Atropin (2:1:1) and flushed trans-cardially with physiological serum at 4° C.
(§6) The brain is removed from the cranium and hindbrain and forebrain are separated with a cut in the coronal/frontal plane. The cerebellum is removed. The forebrain is divided evenly into left and right hemisphere by using a midline sagital cut.
(§7) One hemisphere is immediately immersed in liquid nitrogen and stored at −70° C. until homogenization for biochemical assays.
(§8) Brains are homogenized using a Potter, a glass tube (detergent free, 2 cm^3) and a mechanical homogenizer (650 rpm). A volume of 6.5×½ brain weight of freshly prepared 20 mM Tris/HCl buffer (pH 8.5) with Proteinase Inhibitors (1 tablet per 50 ml Tris/HCl buffer, Complete™, Roche, Mannheim, Germany) is used as homogenization buffer.
(§9) Samples are transferred from −70° C. into a sample holder with liquid nitrogen and each individual sample is pre-warmed by incubation on the bench for a few seconds prior to homogenization. The homogenates are collected in Beckman centrifuge tubes TLX and collected on ice prior to centrifugation. Between two samples, the Potter and the glass tube are rinsed carefully with distilled water without detergents and dried with absorption paper.
(§10) Samples are centrifuged in a pre-cooled ultracentrifuge (Beckman, Mannheim, Germany) for 1 hour and 20 minutes at 48000 rpm (135.000×g) at 4° C. The supernatant (soluble fraction containing secreted APP and amyloid peptides) is separated from the pellet (membrane fraction containing membrane-bound APP-fragments and plaque-associated amyloid peptides in case of aged mice).
(§11) Small reversed phase columns (C18-Sep-Pack Vac 3 cc cartridges, Waters, Mass., MA) are mounted on a vacuum system and washed with 80% acetonitrile in 0.1% Trifluoroacetic acid (A-TFA) followed with 0.1% TFA twice. […]

The test system of assay [2] is Aβ42. Put plainly: In vivo Aβ42 lowering, rat. As to conditions: oral dose 30 mpk at 4 hr time point.
From the text: as §1, §2, §3, §4, §5, §6, §7, §8, §9, §10, §11

With `CC(C)CC(C(=O)O)c1cc(-c2ccc(C(F)(F)F)cc2)cc(-c2cc(F)c(F)c(F)c2)c1` (stereo not drawn) [Compound 14, 4-Methyl-2-(3,4,5-trifluoro-4″-trifluoromethyl-[1,1′;3′,1″]terphenyl-5′-yl)-pentanoic acid], the inhibition in vivo at 30 mg/kg in the assay with Aβ42 [1] was 58%. The “Rat Efficacy % Lowering Aβ 42” value in the assay on Aβ42 [2] is 20%.

Consider `CC(C)CC(C(=O)O)c1cc(-c2ccc(OC(F)(F)F)cc2)cc(-c2ccc(C(F)(F)F)cc2)c1` (stereo not drawn) [Compound 20, 4-Methyl-2-(4-trifluoromethoxy-4″-trifluoromethyl-[1,1′;3′,1″]terphenyl-5′-yl)-pentanoic acid], for which the inhibition in vivo at 30 mg/kg in the assay with Aβ42 [1] was 50%. For the same molecule, the “Rat Efficacy % Lowering Aβ 42” value in the assay with Aβ42 [2] turned out to be 20%.

`CC(C)C[C@@H](C(=O)O)c1cc(-c2ccc(C(F)(F)F)cc2)cc(-c2ccc(C(F)(F)F)cc2)c1` [Compound 39, (R)-2-(4,4″-Bis-trifluoromethyl-[1,1′;3′,1″]terphenyl-5′-yl)-4-methyl-pentanoic acid]: the inhibition in vivo at 30 mg/kg with Aβ42 [1] worked out at 50%. In the assay on Aβ42 [2], the “Rat Efficacy % Lowering Aβ 42” value was found to be 27%.

Turning to `CC(C)C[C@H](C(=O)O)c1cc(-c2ccc(C(F)(F)F)cc2)cc(-c2ccc(C(F)(F)F)cc2)c1` [Compound 40, (S)-2-(4,4″-Bis-trifluoromethyl-[1,1′;3′,1″]terphenyl-5′-yl)-4-methyl-pentanoic acid], in the assay on Aβ42 [1], the inhibition in vivo at 30 mg/kg is 40%. Also, the “Rat Efficacy % Lowering Aβ 42” value in the assay on Aβ42 [2] came to 40%.

For `CC(C)C[C@@H](C(=O)O)c1cc(-c2ccc(C(F)(F)F)cc2)cc(-c2cc(C(F)(F)F)cc(C(F)(F)F)c2)c1` [Compound 44, (R)-4-Methyl-2-(3,5,4″-tris-trifluoromethyl-[1,1′;3′,1″]terphenyl-5′-yl)-pentanoic acid], the inhibition in vivo at 30 mg/kg in the assay with Aβ42 [1] was found to be 40%. Moreover, in the assay with Aβ42 [2], the “Rat Efficacy % Lowering Aβ 42” value is on record as −10%.

For the molecule `CC(C)C[C@H](C(=O)O)c1cc(-c2ccc(C(F)(F)F)cc2)cc(-c2ccc(Cl)c(F)c2)c1` [Compound 50, (S)-2-(4-Chloro-3-fluoro-4″-trifluoromethyl-[1,1′;3′,1″]terphenyl-5′-yl)-4-methyl-pentanoic acid], the inhibition in vivo at 30 mg/kg in the assay with Aβ42 [1] was 48%. In the assay with Aβ42 [2], the “Rat Efficacy % Lowering Aβ 42” value came out at 28%.
